These results are taken from patent US10508109B2 (priority 2015, dated 2019).

In one assay the target is SUV39H2 (Homo sapiens (Human), UniProt Q9H5I1). The experiment in a line: biochemical. Format: biochemical. To be noted: 3H-SAM 100 nM, H3 Histone Peptide 350 nM, room temperature 3 hours. The method, boiled down:
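Scintillation proximity format: reactions were halted with streptavidin SPA beads (50 μg/well final) after 3 h at room temperature with enzyme dosed by lot-specific activity.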

The next assay has as its system A549. The experiment in a line: Cell-based assay, anti-proliferative activity (Cell Counting Kit-8, 72 hours). To be noted: Homo sapiens, read-out: A549 IC50. The method, boiled down:
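Growth read-out after inhibitor treatment of plated cells; potency expressed as IC50.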

[1] abbreviates: A549 cells, 72 hours exposure, Cell Counting Kit-8.

Where a name gives a salt, the structure may show the parent alone. Read-outs that look alike come from different tables or passages of the source.

SUV39H2, sequence (Q9H5I1 whole entry): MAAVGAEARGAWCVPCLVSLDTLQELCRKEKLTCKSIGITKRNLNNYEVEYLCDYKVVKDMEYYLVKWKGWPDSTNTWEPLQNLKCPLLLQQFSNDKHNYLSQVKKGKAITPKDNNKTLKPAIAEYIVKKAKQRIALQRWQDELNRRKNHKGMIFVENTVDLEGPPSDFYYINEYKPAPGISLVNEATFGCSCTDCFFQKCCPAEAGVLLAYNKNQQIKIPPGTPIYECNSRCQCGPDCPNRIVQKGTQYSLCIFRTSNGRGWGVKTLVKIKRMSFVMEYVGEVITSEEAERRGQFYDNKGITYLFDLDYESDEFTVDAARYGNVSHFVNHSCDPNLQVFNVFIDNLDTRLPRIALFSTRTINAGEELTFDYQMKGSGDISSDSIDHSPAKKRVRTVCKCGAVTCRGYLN

In the case of `COc1cc(OC)c(-c2cn3ccc(N4CCCN(c5ncccn5)CC4)cc3n2)cc1Cl` [Example 368, 2-(5-chloro-2,4-dimethoxyphenyl)-7-(4-(pyrimidin-2-yl)-1,4-diazepan-1-yl)imidazo[1,2-a]pyridine], the values for the IC50 at SUV39H2 and in the assay on A549 (setting [1]) were 15.7 nM and 990 nM, respectively.
Take `COc1cc(OC)c(-c2cn3ccc(N4CCN(c5ccnc(N6CCC(O)C6)n5)CC4)cc3n2)cc1Cl` (stereo not shown) [Example 346, 1-(4-(4-(2-(5-chloro-2,4-dimethoxyphenyl)imidazo[1,2-a]pyridin-7-yl)piperazin-1-yl)pyrimidin-2-yl)pyrrolidin-3-ol]: the IC50 (usually the concentration at which inhibition is half-maximal) was 15.3 nM on SUV39H2 and 590 nM with A549 (A549, 72 h).
As for `COc1cc(OC)c(-c2cn3ccc(N[C@H]4C[C@H]5CC[C@@H](C4)N5C(=O)c4ccccc4)cc3n2)cc1Cl` [Example 457, ((1R,3r,5S)-3-((2-(5-chloro-2,4-dimethoxyphenyl)imidazo[1,2-a]pyridin-7-yl)amino)-8-azabicyclo[3.2.1]octan-8-yl)(phenyl)methanone], the IC50 came to 34.8 nM against SUV39H2 and 820 nM in the assay with A549 (setting [1]).
The matching figures for `COc1cc(OC)c(-c2cn3ccc(N4CCN(c5nccc(N6CCOCC6)n5)CC4)cc3n2)cc1Cl` [Example 363, 4-(2-(4-(2-(5-chloro-2,4-dimethoxyphenyl)imidazo[1,2-a]pyridin-7-yl)piperazin-1-yl)pyrimidin-4-yl)morpholine]: 26.5 nM and 490 nM.
In the same order, the values of `COc1cc(OC)c(-c2cn3cc(Br)c(N4CC[C@H](NCc5ccncc5)C4)cc3n2)cc1Cl` [Example 438, (S)-1-(6-bromo-2-(5-chloro-2,4-dimethoxyphenyl)imidazo[1,2-a]pyridin-7-yl)-N-(pyridin-4-ylmethyl)pyrrolidin-3-amine] are 23.1 nM and 2400 nM.
`COc1cc(OC)c(-c2cn3ccc(N4CCN(c5ncc(N)cn5)CC4)cc3n2)cc1Cl` [Example 422, 2-(4-(2-(5-chloro-2,4-dimethoxyphenyl)imidazo[1,2-a]pyridin-7-yl)piperazin-1-yl)pyrimidin-5-amine hydrochloride]: the IC50 against SUV39H2 amounted to 11.2 nM; in the assay with A549 (A549, 72 h) it was 720 nM.
Take `COc1cc(OC)c(-c2cn3ccc(N4CCN(c5cc(N6CCNCC6)ncn5)CC4)cc3n2)cc1Cl` [Example 375, 2-(5-chloro-2,4-dimethoxyphenyl)-7-(4-(6-(piperazin-1-yl)pyrimidin-4-yl)piperazin-1-yl)imidazo[1,2-a]pyridine]: the values for the IC50 at SUV39H2 and with A549 (setting [1]) were 23.1 nM and 690 nM, respectively.
The matching figures for `COc1cc(OC)c(-c2cn3ccc(N[C@H]4CC[C@@H](NCc5ccc(C)cc5)CC4)cc3n2)cc1Cl` [Example 329, cis-N^1-(2-(5-chloro-2,4-dimethoxyphenyl)imidazo[1,2-a]pyridin-7-yl)-N^4-(4-methylbenzyl)cyclohexane-1,4-diamine]: 38.8 nM and 780 nM.
Take `CNc1ncnc(N2CCN(c3ccn4cc(-c5cc(Cl)c(OC)cc5OC)nc4c3)CC2)n1` [Example 451, 4-(4-(2-(5-chloro-2,4-dimethoxyphenyl)imidazo[1,2-a]pyridin-7-yl)piperazin-1-yl)-N-methyl-1,3,5-triazin-2-amine]: the IC50 at SUV39H2 worked out at 17 nM; in the assay with A549 (setting [1]), 460 nM.
The matching figures for `COc1cc(OC)c(-c2cn3cnc(N4CC[C@H](NC(=O)OC(C)(C)C)C4)cc3n2)cc1Cl` [Example 387, (S)-tert-butyl (1-(2-(5-chloro-2,4-dimethoxyphenyl)imidazo[1,2-c]pyrimidin-7-yl)pyrrolidin-3-yl)carbamate]: 33.2 nM and 1600 nM.
In the same order, the values of `CNC1CCN(c2ccnc(N3CCN(c4ccn5cc(-c6cc(Cl)c(OC)cc6OC)nc5c4)CC3)n2)CC1` [Example 426, 1-(2-(4-(2-(5-chloro-2,4-dimethoxyphenyl)imidazo[1,2-a]pyridin-7-yl)piperazin-1-yl)pyrimidin-4-yl)-N-methylpiperidin-4-amine] are 17.7 nM and 670 nM.
`COc1cc(OC)c(-c2cn3ccc(N4CCN(c5cc(N6CCCC6)ncn5)CC4)cc3n2)cc1Cl` [Example 355, 2-(5-chloro-2,4-dimethoxyphenyl)-7-(4-(6-(pyrrolidin-1-yl)pyrimidin-4-yl)piperazin-1-yl)imidazo[1,2-a]pyridine]: the IC50 at SUV39H2 is 38.8 nM; in the assay with A549 (setting [1]) it was 670 nM.
In the same order, the values of `COc1cc(OC)c(-c2cn3ccc(N[C@H]4C[C@H]5CC[C@@H](C4)N5CC(C)(C)C)cc3n2)cc1Cl` [Example 452, 2-(5-chloro-2,4-dimethoxyphenyl)-N-((1R,3r,5S)-8-neopentyl-8-azabicyclo[3.2.1]octan-3-yl)imidazo[1,2-a]pyridin-7-amine] are 42.6 nM and 830 nM.
The matching figures for `COc1cc(OC)c(-c2cn3ccc(N4CCN(c5nccc(N6CCCC(O)C6)n5)CC4)cc3n2)cc1Cl` (stereo not shown) [Example 376, 1-(2-(4-(2-(5-chloro-2,4-dimethoxyphenyl)imidazo[1,2-a]pyridin-7-yl)piperazin-1-yl)pyrimidin-4-yl)piperidin-3-ol]: 66.5 nM and 980 nM.
Consider `COc1cc(OC)c(-c2cn3ccc(N4CC[C@H](NCc5ccnc(Cl)c5)C4)cc3n2)cc1Cl` [Example 413, (S)-1-(2-(5-chloro-2,4-dimethoxyphenyl)imidazo[1,2-a]pyridin-7-yl)-N-((2-chloropyridin-4-yl)methyl)pyrrolidin-3-amine dihydrochloride], for which the IC50 against SUV39H2 stood at 6.35 nM; in the assay with A549 (A549, 72 h), 770 nM.
`COc1cc(OC)c(-c2cn3ccc(N[C@H]4CC[C@H](NCc5ccccc5O)CC4)cc3n2)cc1Cl` [Example 420, 2-((((1r,4r)-4-((2-(5-chloro-2,4-dimethoxyphenyl)imidazo[1,2-a]pyridin-7-yl)amino)cyclohexyl)amino)methyl)phenol]: the results for the IC50 against SUV39H2 and with A549 (setting [1]) were 64.6 nM and 720 nM, respectively.
In the same order, the values of `COc1cc(OC)c(-c2cn3ccc(N[C@H]4C[C@H]5CC[C@@H](C4)N5CC4CCCC4)cc3n2)cc1Cl` [Example 443, 2-(5-chloro-2,4-dimethoxyphenyl)-N-((1R,3r,5S)-8-(cyclopentylmethyl)-8-azabicyclo[3.2.1]octan-3-yl)imidazo[1,2-a]pyridin-7-amine] are 17.3 nM and 820 nM.
For the compound `COc1cc(OC)c(-c2cn3ccc(N4CCN(c5ccc(N)nc5)CC4)cc3n2)cc1Cl` [Example 323, 5-(4-(2-(5-chloro-2,4-dimethoxyphenyl)imidazo[1,2-a]pyridin-7-yl)piperazin-1-yl)pyridin-2-amine], the IC50 on SUV39H2 came out at 30.4 nM; in the assay with A549 (setting [1]), 930 nM.
As for `COc1cc(OC)c(-c2cn3ccc(N4CCN(c5cc(Cl)nc(N)n5)CC4)cc3n2)cc1Cl` [Example 360, 4-chloro-6-(4-(2-(5-chloro-2,4-dimethoxyphenyl)imidazo[1,2-a]pyridin-7-yl)piperazin-1-yl)pyrimidin-2-amine], the IC50 came to 56 nM against SUV39H2 and 620 nM in the assay on A549 (setting [1]).
In the same order, the values of `COc1cc(OC)c(-c2cn3ccc(N4CCN(c5nccc(N6CCC(=O)CC6)n5)CC4)cc3n2)cc1Cl` [Example 366, 1-(2-(4-(2-(5-chloro-2,4-dimethoxyphenyl)imidazo[1,2-a]pyridin-7-yl)piperazin-1-yl)pyrimidin-4-yl)piperidin-4-one] are 62.9 nM and 860 nM.
